Source: patent US9271492B2, “Antimicrobial composition” (Rohm and Haas Company, priority 2011, dated 2016)

What was measured:
Assay type in all cases: cell-based
[1] = tested on: Escherichia coli (10536 strain); assay: Example 1: 15 second contact suspension kill assay, mean bacterial survival and MBC; conditions: component alone; lowest concentration giving complete kill after 15 seconds; upper boundary to the MBC
[2] = tested on: Escherichia coli (E. coli - ATCC #10536); assay: Example 2: high resolution MBC synergy assay in phosphate buffer containing 5% dipropylene glycol; conditions: for ΣFBC: calculated from Ca/MBCA + Cb/MBCB; for MBC of component alone (MBCA, MBCB) / Cb, end-point (MBC) of second component carveol in the mixture / Ca, end-point (MBC) of first component thymol in the mixture / Cb, end-point (MBC) of second component perillyl alcohol in the mixture: complete kill in 15 seconds; for MBC of component alone (MBCA, MBCB): phosphate buffer with 5% DPG, about 1×10^8 bacteria per mL; for Cb, end-point (MBC) of second component carveol in the mixture / Cb, end-point (MBC) of second component perillyl alcohol in the mixture: mixture with thymol at Ca
Description: In this Example, a wide range of combinations of chemicals was tested by conducting high resolution MBC assays of carveol or perillyl alcohol in the presence of various concentrations of thymol. […] The MBC plate was inoculated one column at a time with the test microorganism. An aliquot of the inoculated well was transferred at 15 seconds to a plate containing a neutralizing agent (D/E Neutralizing Broth), mixed and held for 5 minutes before being transferred to a growth plate containing trypticase soy broth (TSB). The TSB plate was incubated at 37° C. and read for the presence/absence of growth at 24 hours. […] This microorganism is representative of natural contaminants in many consumer and industrial applications. […] The tables show the specific combinations of two components; results against the microorganism tested; the end-point activity in weight % measured by the MBC for the first component alone (thymol, MBCA), for the second component alone ([…] alcohol, MBCB), for the first component in the mixture (Ca) and for the second component in the mixture (Cb); the calculated ΣFBC value; and the range of synergistic ratios for each combination tested (first component to second component or A/B) against the particular microorganism.

[3] = tested on: Escherichia coli (E. coli ATCC #10536); assay: Example 3: automated assessment of efficacy in surfactant base (2.85% sodium cocoyl glycinate + 1.85% sodium lauroamphoacetate, pH 10); conditions: for bactericidal efficacy in combination with thymol (in words): in combination with thymol at concentrations lower than their MBC in the same surfactant formulation, complete kill in all 4 or 3 replicates; for MBC (minimum biocidal concentration): component alone in 2.85% sodium cocoyl glycinate + 1.85% sodium lauroamphoacetate solution at pH 10
Description: In these examples, the efficacy of combinations of thymol and menthadiene alcohols were tested in a surfactant cleansing formulation comprising 2.85% sodium cocoyl glycinate and 1.85% sodium lauroamphoacetate. This corresponds to a 50% in use dilution with water of a typical neat formulation containing 5.7% cocoyl glycinate and 3.7% % sodium lauroamphoacetate during hand washing. Solutions were prepared such that the concentrations of the surfactant components and test actives were 1.1 times the final desired concentration in order to allow for dilution with the bacterial inoculum in the test. The solutions were manually adjusted to pH 10.0 by dropwise addition of sodium hydroxide solution, as measured with a pH meter at ambient temperature. Solutions of the thymol and/or menthadiene alcohols were prepared at a maximum of 24 hours before testing. The same thymol and menthadiene alcohols were used as in Example 1.
The efficacy of the combinations of the present invention was determined against the same bacterium as in Example 1, Escherichia coli (E. coli ATCC #10536), at a concentration of approximately 1×10^8 bacteria per mL.
Tests were conducted using standard microtiter plate assays using an automated liquid handling system. 270 μl of the surfactant test solution was pipetted into each well of the microtitre plate (Nunc F Gamma Irradiated 96F untreated microtitre plates of clear polystyrene) and 30 μl of the bacterial suspension was then added. After exactly 15 seconds of bacterial exposure, a 30 μl volume of bacterial cells was withdrawn and transferred to 270 μl of D/E quench solution. After 5 minutes in the D/E quench, the optical density (OD) was measured for each plate in turn at two specific wavelengths (450 nm and 590 nm). These provide a dual check of antimicrobial activity, as the OD450 reading is specific for the yellow colour of D/E quench when bacterial growth is observed, whereas OD590 is specific for the initial purple colour of the D/E quench which is retained if no bacterial growth is observed. […] Delta OD values were calculated by subtracting […] at time=16 hours. […] To identify antibacterially efficacious systems (those preventing appreciable bacterial growth after incubation), the following threshold changes in OD readings have been adopted: if (1). OD450 increases by less than 0.2 absorbance unit (AU) on incubation and (2). […] The number of replicate wells showing either bacterial growth or no growth is also readily assessed by eye by following the colour change. […]
In each case, binary mixtures were assessed in the weight to weight ratio of thymol to menthadiene alcohol of 1:2.5.

## C=C(C)C1CC=C(C)C(O)C1 (stereo not shown) [carveol, 2-methyl-5-(prop-1-en-2-yl)cyclohex-2-enol]
[1]
  MBC (minimum biocidal concentration): 0.3 % w/v
[2]
  ΣFBC: 1.00
  MBC of component alone (MBCA, MBCB): 0.7 weight %
[2]; thymol to carveol ratio 1 to 0.05
  Cb, end-point (MBC) of second component carveol in the mixture: 0.025 weight %
[2]; thymol to carveol ratio 1 to 0.08
  Cb, end-point (MBC) of second component carveol in the mixture: 0.05 weight %
[2]; thymol to carveol ratio 1 to 0.25
  Cb, end-point (MBC) of second component carveol in the mixture: 0.075 weight %
[2]; thymol to carveol ratio 1 to 0.5
  Cb, end-point (MBC) of second component carveol in the mixture: 0.1 weight %
[2]; thymol to carveol ratio 1 to 4.38
  Cb, end-point (MBC) of second component carveol in the mixture: 0.35 weight %
[3]
  bactericidal efficacy in combination with thymol (in words): 15 second bactericidal efficacy

## Cc1ccc(C(C)C)c(O)c1 [thymol, 2-isopropyl-5-methylphenol]
[2]
  ΣFBC: 1.00
[2]; mixture with carveol at Cb, thymol to carveol ratio 1 to 0.05
  Ca, end-point (MBC) of first component thymol in the mixture: 0.5 weight %
[2]; mixture with carveol at Cb, thymol to carveol ratio 1 to 0.08
  Ca, end-point (MBC) of first component thymol in the mixture: 0.6 weight %
[2]; mixture with carveol at Cb, thymol to carveol ratio 1 to 0.19
  Ca, end-point (MBC) of first component thymol in the mixture: 0.4 weight %
[2]; mixture with carveol at Cb, thymol to carveol ratio 1 to 0.25
  Ca, end-point (MBC) of first component thymol in the mixture: 0.3 weight %
[2]; mixture with carveol at Cb, thymol to carveol ratio 1 to 0.5
  Ca, end-point (MBC) of first component thymol in the mixture: 0.2 weight %
[2]; mixture with carveol at Cb, thymol to carveol ratio 1 to 3.5
  Ca, end-point (MBC) of first component thymol in the mixture: 0.1 weight %
[2]; mixture with carveol at Cb, thymol to carveol ratio 1 to 4.38
  Ca, end-point (MBC) of first component thymol in the mixture: 0.08 weight %
[2]; mixture with perillyl alcohol at Cb, thymol to perillyl alcohol ratio 1 to 0.17
  Ca, end-point (MBC) of first component thymol in the mixture: 0.3 weight %
[2]; mixture with perillyl alcohol at Cb, thymol to perillyl alcohol ratio 1 to 0.5
  Ca, end-point (MBC) of first component thymol in the mixture: 0.2 weight %
[2]; mixture with perillyl alcohol at Cb, thymol to perillyl alcohol ratio 1 to 2.5
  Ca, end-point (MBC) of first component thymol in the mixture: 0.08 weight %
[3]
  MBC (minimum biocidal concentration): 0.2 % w/v

## C=C(C)[C@@H]1CC=C(CO)CC1 [perillyl alcohol, (S)-(4-(prop-1-en-2-yl)cyclohex-1-en-1-yl)methanol]
[1]
  MBC (minimum biocidal concentration): 0.1 % w/v
[2]
  ΣFBC: 1.00
  MBC of component alone (MBCA, MBCB): 0.3 weight %
[2]; thymol to perillyl alcohol ratio 1 to 0.13
  Cb, end-point (MBC) of second component perillyl alcohol in the mixture: 0.025 weight %
[2]; thymol to perillyl alcohol ratio 1 to 0.17
  Cb, end-point (MBC) of second component perillyl alcohol in the mixture: 0.05 weight %
[2]; thymol to perillyl alcohol ratio 1 to 0.38
  Cb, end-point (MBC) of second component perillyl alcohol in the mixture: 0.075 weight %
[2]; thymol to perillyl alcohol ratio 1 to 0.5
  Cb, end-point (MBC) of second component perillyl alcohol in the mixture: 0.1 weight %
[2]; thymol to perillyl alcohol ratio 1 to 2.5
  Cb, end-point (MBC) of second component perillyl alcohol in the mixture: 0.2 weight %
[3]
  MBC (minimum biocidal concentration): 0.5 % w/v
  bactericidal efficacy in combination with thymol (in words): 15 second bactericidal efficacy
